Experimental data taken from patent US20200331904A1, “3-AMINO-[1,2,4]-TRIAZOLE DERIVATIVES AND THEIR USE FOR CONTROLLING UNDESIRED PLANT GROWTH” (Bayer CropScience Aktiengesellschaft, priority 2017, published 2020).

Legend:
Assay type in all cases: in vivo
Echinochloa crus-galli [1] = test: Pre-emergence herbicidal efficacy, ECHCG; settings: Table B1, application rate 320 g/ha, scored visually after about 3 weeks vs untreated controls
Outline: (§1)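 Visual percent activity relative to untreated plants (0% = like control, 100% = dead), scored about 3 weeks after treatment under greenhouse conditions.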

Lolium rigidum [2] = test: Pre-emergence herbicidal efficacy, LOLRI; settings: Table B1, application rate 320 g/ha, scored visually after about 3 weeks vs untreated controls
Outline: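 Seeds sown in pots and covered with soil. Greenhouse-grown about 3 weeks, then visually scored as % activity vs untreated controls (100% = dead, 0% = like control).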

Setaria viridis [3] = test: Pre-emergence herbicidal efficacy, SETVI; settings: Table B1, application rate 320 g/ha, scored visually after about 3 weeks vs untreated controls
Outline: as §1

Abutilon theophrasti [4] = test: Pre-emergence herbicidal efficacy, ABUTH; settings: Table B1, application rate 320 g/ha, scored visually after about 3 weeks vs untreated controls
Outline: as §1

Amaranthus retroflexus [5] = test: Pre-emergence herbicidal efficacy, AMARE; settings: Table B1, application rate 320 g/ha, scored visually after about 3 weeks vs untreated controls
Outline: as §1

Matricaria inodora = test: Pre-emergence herbicidal efficacy, MATIN; settings: Table B1, application rate 320 g/ha, scored visually after about 3 weeks vs untreated controls
Outline: as §1

Polygonum convolvulus = test: Pre-emergence herbicidal efficacy, POLCO; settings: Table B1, application rate 320 g/ha, scored visually after about 3 weeks vs untreated controls
Outline: as §1

Stellaria media [6] = test: Pre-emergence herbicidal efficacy, STEME; settings: Table B1, application rate 320 g/ha, scored visually after about 3 weeks vs untreated controls
Outline: as §1

Viola tricolor [7] = test: Pre-emergence herbicidal efficacy, VIOTR; settings: Table B1, application rate 320 g/ha, scored visually after about 3 weeks vs untreated controls
Outline: as §1

Veronica persica [8] = test: Pre-emergence herbicidal efficacy, VERPE; settings: Table B1, application rate 320 g/ha, scored visually after about 3 weeks vs untreated controls
Outline: as §1

Setaria viridis [9] = test: Post-emergence herbicidal efficacy, SETVI; settings: Table B6, one-leaf stage, application rate 320 g/ha, rated visually after about 3 weeks vs untreated controls
Text: (§2) ABUTH: Abutilon theophrasti ALOMY: Alopecurus myosuroides AMARE: Amaranthus retroflexus AVEFA: Avena fatua CYPES: Cyperus esculentus ECHCG: Echinochloa crus-galli LOLMU: Lolium multiflorum MATIN: Matricaria inodora PHBPU: Ipomoea purpurea POLCO: Polygonum convolvulus SETVI: Setaria viridis STEME: Stellaria media VERPE: Veronica persica VTOTR: Viola tricolor
(§3) C.2 Post-Emergence Herbicidal Action and Crop Plant Compatibility
(§4) Seeds of monocotyledonous and dicotyledonous weeds and crop plants are placed in sandy loam in plastic or organic planting pots, covered with soil and cultivated in a greenhouse under controlled growth conditions. 2 to 3 weeks after sowing, the test plants are treated at the one-leaf stage. The compounds of the invention, formulated in the form of wettable powders (WP) or as emulsion concentrates (EC), are then sprayed onto the green parts of the plants as aqueous suspension or emulsion with addition of 0.5% additive at a water application rate of […] (converted). After the test plants had been kept in the greenhouse under optimum growth conditions for about 3 weeks, the activity of the preparations is rated visually in comparison to untreated controls. For example, 100% activity=the plants have died, 0% activity=like control plants.

Abutilon theophrasti [10] = test: Post-emergence herbicidal efficacy, ABUTH; settings: Table B6, one-leaf stage, application rate 320 g/ha, rated visually after about 3 weeks vs untreated controls
Text: as §2, §3, §4

Amaranthus retroflexus [11] = test: Post-emergence herbicidal efficacy, AMARE; settings: application rate 320 g/ha
Text: as §2, §3, §4

Veronica persica [12] = test: Post-emergence herbicidal efficacy, VERPE; settings: application rate 320 g/ha
Text: as §2, §3, §4

harmful plants [13] = test: Pre-emergence herbicidal action; settings: applied pre-emergence
Text: C.1 Pre-Emergence Herbicidal Action and Crop Plant Compatibility
Seeds of monocotyledonous and dicotyledonous weed plants and crop plants are placed in plastic or organic planting pots and covered with soil. The compounds of the invention, formulated in the form of wettable powders (WP) or as emulsion concentrates (EC), are then applied onto the surface of the covering soil as aqueous suspension or emulsion with addition of 0.5% additive at a water application rate of […] (converted). After the treatment, the pots are placed in a greenhouse and kept under good growth conditions for the trial plants. After about 3 weeks, the effect of the preparations is scored visually in comparison with untreated controls as percentages. For example, 100% activity=the plants have died, 0% activity=like control plants.

Echinochloa crus-galli [14] = test: Post-emergence herbicidal efficacy, ECHCG; settings: application rate 320 g/ha, rated visually after about 3 weeks
Text: as §2, §3, §4

Lolium rigidum [15] = test: Post-emergence herbicidal efficacy, LOLRI; settings: application rate 320 g/ha, rated visually after about 3 weeks
Method: as §3, §4

Stellaria media [16] = test: Post-emergence herbicidal efficacy, STEME; settings: application rate 320 g/ha, rated visually after about 3 weeks
Text: as §2, §3, §4

Viola tricolor [17] = test: Post-emergence herbicidal efficacy, VIOTR; settings: application rate 320 g/ha, rated visually after about 3 weeks (Table B5)
Text: as §2, §3, §4

harmful plants [18] = test: Post-emergence herbicidal action; settings: applied post-emergence
Method: as §3, §4

[19] = Table B6, one-leaf stage, rated visually after about 3 weeks vs untreated controls
[20] = rated visually after about 3 weeks
[21] = rated visually after about 3 weeks (Table B5)

Row | Compound | Herbicidal efficacy against ECHCG (Echinochloa crus-galli [1]) [%] | Herbicidal efficacy against LOLRI (Lolium rigidum [2]) [%] | Herbicidal efficacy against SETVI (Setaria viridis [3]) [%] | Herbicidal efficacy against ABUTH (Abutilon theophrasti [4]) [%] | Herbicidal efficacy against AMARE (Amaranthus retroflexus [5]) [%] | Herbicidal efficacy against MATIN (Matricaria inodora) [%] | Herbicidal efficacy against POLCO (Polygonum convolvulus) [%] | Herbicidal efficacy against STEME (Stellaria media [6]) [%] | Herbicidal efficacy against VIOTR (Viola tricolor [7]) [%] | Herbicidal efficacy against VERPE (Veronica persica [8]) [%] | Herbicidal efficacy against SETVI (Setaria viridis [9]) [%] | Herbicidal efficacy against ABUTH (Abutilon theophrasti [10]) [%] | Herbicidal efficacy against AMARE (Amaranthus retroflexus [11]; [19]) [%] | Herbicidal efficacy against VERPE (Veronica persica [12]; [19]) [%] | herbicidal efficacy against harmful plants (harmful plants [13]) | Herbicidal efficacy against ECHCG (Echinochloa crus-galli [14]) [%] | Herbicidal efficacy against LOLRI (Lolium rigidum [15]) [%] | Herbicidal efficacy against AMARE (Amaranthus retroflexus [11]; [20]) [%] | Herbicidal efficacy against STEME (Stellaria media [16]) [%] | Herbicidal efficacy against VIOTR (Viola tricolor [17]) [%] | other results
1 | CC(=O)N1CCn2nc(N[C@@H]3CCCc4ccc(C)cc43)nc2C1 [Example I-180] | 100 | 100 | 100 | 100 | 100 | 100 | 100 | 100 | 100 | 100 | 80 | 80 | 80 | 80 |  |  |  |  |  |  | 
2 | Cc1ccc2c(c1)[C@H](Nc1nc3n(n1)CCN(S(=O)(=O)C(C)C)C3)CCC2 [Example I-199] | 100 | 100 | 100 | 100 | 100 | 100 | 100 | 100 | 100 | 100 |  |  |  |  | very good herbicidal efficacy |  |  |  |  |  | 
3 | Cc1ccc2c(c1)C(Nc1nc3n(n1)CCCCS3)CCC2 (stereo not shown) [Example I-214] | 100 | 100 | 100 | 100 | 100 | 100 | 100 | 100 | 100 | 100 | 100 | 80 | 80 | 100 |  |  |  |  |  |  | 
4 | Cc1ccc2c(c1)C(Nc1nc3n(n1)CCC(=O)N3C)CCC2 (stereo not shown) [Example I-231] | 100 | 100 | 100 | 100 | 100 | 100 | 100 | 100 | 100 | 100 |  |  |  |  | very good herbicidal efficacy | 100 | 80 | 80 | 80 | 90 | Herbicidal efficacy against VERPE (Veronica persica [12]; [21]): 90%; herbicidal efficacy against harmful plants (harmful plants [18]): very good herbicidal efficacy
5 | Cc1ccc2c(c1)[C@H](Nc1nc3n(n1)CCCCS3)CC2 [Example I-353] | 100 | 100 | 100 | 100 | 100 | 100 | 100 | 100 | 100 | 100 |  |  |  |  |  | 100 | 100 | 90 | 100 | 80 | Herbicidal efficacy against VERPE (Veronica persica [12]; [21]): 90%; herbicidal efficacy against harmful plants (harmful plants [18]): very good herbicidal efficacy
6 | Cc1ccc2c(c1)[C@H](Nc1nc3n(n1)CCCCS3)CCO2 [Example I-377] | 100 | 100 | 100 | 100 | 100 | 100 | 100 | 100 | 100 | 100 | 90 | 80 | 80 | 90 |  |  |  |  |  |  | 
